Measured values published in patent publication US20240270701A1, “BETA ADRENERGIC AGONIST AND METHODS OF USING THE SAME” (Curasen Therapeutics, Inc., priority 2021, published 2024).
Like-named read-outs stand apart in the source and are kept apart here.

Legend:
B1-AR = target: T1, B1-AR (Homo sapiens, UniProt P08588); assay: cAMP Gs dynamic HTRF assay, cells expressing beta-adrenergic receptor (CHO-K1), B1-AR; type: cell-based; details: for EC50: cAMP HTRF, read-out: pEC50 [B1-AR] (converted); for Emax: relative to full agonist isoproterenol, read-out: Emax (% iso) (%) [B1-AR]
T1 construct: expressed in transfected cells; host or cells: CHO-K1
Description: (§1) cAMP homogeneous time-resolved fluorescence (HTRF): experimental methods. Compound efficacy is determined using the cAMP Gs dynamic HTRF assay (Cisbio, catalog #62AM4PEC) largely following the manufacturer's instructions, also detailed below.
(§2) Standard serial dilution curves are 10-point, 5-fold dilutions starting from a highest concentration of 10 μM. Controls present on every assay plate are 0.1% DMSO (vehicle control), 1 μM isoproterenol (full beta-adrenergic agonist control) and […] xamoterol (partial beta-adrenergic agonist control). […] Assay plates are centrifuged at 500×g for 10 seconds. Compounds and IBMX are prepared at 2× final dose to compensate for addition of cells.
(§3) Cell preparation: 1× stimulation buffer, washing PBS (Dulbecco's phosphate-buffered saline, − Mg − Ca; Caisson Labs, catalog #PBL01), assay PBS (Dulbecco's phosphate-buffered saline, + Mg, + Ca; Caisson Labs, catalog #PBL02) and Versene (0.02% EDTA disodium salt solution in PBS without calcium or magnesium; Caisson Labs, catalog #EDL01) are pre-warmed to 37° C. Cells expressing beta-adrenergic receptor were washed in washing PBS to remove growth medium and then released from the surface by incubating with Versene for 5-10 minutes at 37° C. Cells are harvested using assay PBS, counted manually by hemocytometer or by an automated cell counter, pelleted by centrifugation (200×g, 5 minutes) and resuspended in 37° C. 1× stimulation buffer to a final density of 1.5×10^6 cells/mL. 5 μL of the suspended cell solution (7500 cell total) are added to all wells of the 384 well assay plate, the assay plate was covered with an Axygen® plate seal (Corning PCR-SP) and incubated in a humidified 37° C. environment supplemented with 5% CO2 for 30 minutes.
(§4) HTRF reagent addition, reading and data analysis: After 30 minutes of cell stimulation with test compound, the assay plates are centrifuged at 500×g for 10 seconds, and incubation was stopped with the addition of 5 μL cAMP-D2 acceptor, diluted 1:21 in detection and lysis buffer 2 (Cisbio 62CL2FDF) was added to all cells. Subsequently, 5 μL Anti-cAMP-Eu Donor, diluted 1:21 in detection and lysis buffer 2, was added to cells. Plates were sealed and reactions gently ‘vortexed’ at 900 rpm on a Heidolph Titramax 1000 for at least 30 minutes at room temperature. Plates are centrifuged again at 500×g for 10 seconds, and HTRF was measured using a Tecan Spark plate reader at 50 flashes per well. […] Potency estimates (EC50 and pEC50) are derived from the four-parameter nonlinear regression of the concentration-effect curve and an estimate of relative efficacy is determined by comparing the magnitude of the test compound HTRF signal window (min−max dose) with the signal window of the full agonist control, isoproterenol.

B2-AR = target: T2, B2-AR (Homo sapiens, UniProt P07550); assay: cAMP Gs dynamic HTRF assay, cells expressing beta-adrenergic receptor (CHO-K1), B2-AR; type: cell-based; details: for EC50: cAMP HTRF, read-out: pEC50 [B2-AR] (converted); for Emax: relative to full agonist isoproterenol, read-out: Emax (% iso) (%) [B2-AR]
T2 construct: expressed in transfected cells; host or cells: CHO-K1
Description: as §1, §2, §3, §4

T2 sequence (P07550 whole entry, species assumed): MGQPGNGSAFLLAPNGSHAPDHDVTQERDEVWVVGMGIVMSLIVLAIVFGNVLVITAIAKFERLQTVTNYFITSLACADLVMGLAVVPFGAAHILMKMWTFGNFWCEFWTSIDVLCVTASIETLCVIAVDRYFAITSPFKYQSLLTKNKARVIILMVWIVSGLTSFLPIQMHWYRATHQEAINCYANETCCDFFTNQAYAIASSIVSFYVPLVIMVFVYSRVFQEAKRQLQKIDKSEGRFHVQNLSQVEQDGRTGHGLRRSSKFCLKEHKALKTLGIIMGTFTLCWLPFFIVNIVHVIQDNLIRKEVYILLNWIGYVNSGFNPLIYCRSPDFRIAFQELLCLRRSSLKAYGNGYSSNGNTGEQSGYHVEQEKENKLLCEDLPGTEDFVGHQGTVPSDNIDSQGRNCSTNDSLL
T1 sequence (P08588 whole entry, species assumed): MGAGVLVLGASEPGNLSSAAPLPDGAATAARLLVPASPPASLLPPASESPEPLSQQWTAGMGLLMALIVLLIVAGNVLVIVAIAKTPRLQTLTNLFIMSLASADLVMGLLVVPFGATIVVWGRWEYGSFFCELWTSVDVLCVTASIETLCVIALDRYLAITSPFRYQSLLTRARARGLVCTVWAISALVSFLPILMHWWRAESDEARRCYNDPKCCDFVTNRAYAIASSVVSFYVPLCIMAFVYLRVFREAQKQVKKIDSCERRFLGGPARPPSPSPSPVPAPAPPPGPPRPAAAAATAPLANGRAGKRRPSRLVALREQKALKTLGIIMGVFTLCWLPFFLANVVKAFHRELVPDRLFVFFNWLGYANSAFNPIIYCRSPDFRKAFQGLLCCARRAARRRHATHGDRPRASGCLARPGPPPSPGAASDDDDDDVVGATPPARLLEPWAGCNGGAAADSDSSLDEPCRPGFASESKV

| SMILES | EC50 (B1-AR) [nM] | Emax (B1-AR) [%] | EC50 (B2-AR; CHO-K1 cells) [nM] | Emax (B2-AR; CHO-K1 cells) [%] | Emax (B2-AR; CHO-K1, CHO-K1 cells) [%] |
| --- | --- | --- | --- | --- | --- |
| CC(C)(NC[C@H](O)c1cc(C#N)cc2[nH]ncc12)C1CC1 [I-1] | 100 to 1000 | > 90 | 10 to 100 | > 90 | – |
| C[C@H](NC[C@H](O)c1cccc2c1C(F)(F)C(=O)N2)C(C)(C)C [I-2] | > 1000 | 50 to 70 | 10 to 100 | > 90 | – |
| C[C@H](NC[C@H](O)c1ccc(Cl)c2[nH]ncc12)C(C)(C)C [I-3] | 100 to 1000 | 50 to 70 | < 10 | – | 70 to 90 |
| CC(C)(C)C(C)(C)NC[C@H](O)c1cc(C#N)cc2[nH]ncc12 [I-4] | > 1000 | < 50 | 100 to 1000 | – | > 90 |
| C[C@H](NC[C@H](O)c1cc(C#N)cc2[nH]ncc12)C(C)(C)C [I-5] | > 1000 | 50 to 70 | 100 to 1000 | – | 70 to 90 |
| C[C@H](NC[C@H](O)c1cccc2[nH]ncc12)C(C)(C)C [I-6] | 100 to 1000 | 70 to 90 | < 10 | – | > 90 |
| CC(C)(C)C(C)(C)NC[C@H](O)c1cccc2[nH]ncc12 [I-7] | 100 to 1000 | > 90 | < 10 | – | > 90 |
| CC(C)(C)C(C)(C)NC[C@H](O)c1ccc(F)c2[nH]ncc12 [I-8] | > 1000 | 70 to 90 | < 10 | > 90 | – |
| C[C@@H](NC[C@H](O)c1cccc2[nH]ncc12)C(C)(C)C [I-9] | 10 to 100 | > 90 | < 10 | – | > 90 |
| C[C@@H](NC[C@H](O)c1ccc(F)c2[nH]ncc12)C1CC1 [I-10] | < 10 | 70 to 90 | < 10 | – | > 90 |
| C[C@H](NC[C@H](O)c1cccc2[nH]ncc12)C1CC1 [I-11] | < 10 | > 90 | < 10 | – | > 90 |
| CC(C)(NC[C@H](O)c1cccc2[nH]ncc12)C1CC1 [I-12] | < 10 | > 90 | < 10 | > 90 | – |
| C[C@@H](NC[C@H](O)c1cccc2[nH]ncc12)C1CC1 [I-13] | < 10 | > 90 | < 10 | – | > 90 |
| C[C@H](NC[C@H](O)c1ccc(F)c2[nH]ncc12)C(C)(C)C [I-14] | 100 to 1000 | 70 to 90 | < 10 | – | 50 to 70 |
| COc1ccc(C[C@@H](C)NC[C@H](O)c2cc(F)cc3[nH]ncc23)cc1 [I-15] | < 10 | > 90 | < 10 | > 90 | – |
| C[C@@H](NC[C@H](O)c1ccc(F)c2[nH]ncc12)C(C)(C)C [I-16] | 10 to 100 | > 90 | < 10 | – | > 90 |
| COc1ccc(C[C@@H](C)NC[C@H](O)c2ccc(F)c3[nH]ncc23)cc1 [I-17] | < 10 | > 90 | < 10 | > 90 | – |
| COc1ccc(C[C@@H](C)NC[C@H](O)c2cccc3[nH]nc(F)c23)cc1 [I-18] | < 10 | > 90 | < 10 | > 90 | – |
| CC(C)(NC[C@H](O)c1cc(F)cc2[nH]ncc12)C1CC1 [I-19] | < 10 | > 90 | < 10 | – | > 90 |
| CC(C)(NC[C@H](O)c1cccc2[nH]nc(F)c12)C1CC1 [I-20] | < 10 | > 90 | < 10 | – | > 90 |
| CC(C)(NC[C@H](O)c1ccc(F)c2[nH]ncc12)C1CC1 [I-21] | < 10 | > 90 | < 10 | > 90 | – |
